The source of these data is US20240156767A1, “SCREENING METHOD FOR GLP-1 SECRETION REGULATION AGENT, GLP-1 SECRETION REGULATION AGENT, COMPOSITION FOR PREVENTING OR AMELIORATING DIABETES, OBESITY, POSTPRANDIAL HYPERGLYCEMIA, NEURODEGENERATIVE DISEASE, HYPOGLYCEMIA, ADIPOSITY, OR NESIDIOBLASTOSIS, METHOD FOR PROMOTING SECRETION OF GLP-1 IN …” (The Nisshin OilliO Group, Ltd., priority 2021, published 2024).

The test deals with C57BL/6 male mice. Kind of test: Glucose tolerance test in mice with triacylglycerols: plasma GLP-1 concentration (ELISA). Type of test: in vivo. Particulars: 300 μl sample oral per mouse; glucose 2.5 g/kg 60 minutes after sample; blood 30 minutes after glucose; mean±standard error. As for the experimental part: A glucose tolerance test was carried out by the following method to examine effects of administration of triacylglycerol to mice on the plasma GLP-1 secretion during glucose tolerance.
To the PBS solution (10 ml) obtained in the same manner as in the (1-1) above, 50 mg of carboxymethyl cellulose (trade name “Carboxymethyl cellulose sodium”, manufactured by FUJIFILM Wako Pure Chemical Industries, Ltd.) was added and mixed to obtain a carrier solution. To the obtained carrier solution, 2 g of triacylglycerol (trade name “Tridecanoin <Tricaprin>”, manufactured by New Check Prep Co., Ltd.) in which the constituent fatty acids were all capric acid was added and mixed while heating to obtain TriC10 sample.
A carrier solution was obtained in the same manner as in the (1-2) above. […]
Plasma was prepared from the obtained blood by a conventional method, and the plasma GLP-1 concentration (pM) was measured. Note here that the plasma GLP-1 concentration was measured by ELISA using a commercially available kit (trade name “Glucagon Like Peptide-1 (Active) ELISA”, manufactured by Sigma-Aldrich). […]
(In an ELISA, binding on a coated surface is turned into a signal by an enzyme label.)

Turning to `CCCCCCCCCC(=O)OCC(COC(=O)CCCCCCCCC)OC(=O)CCCCCCCCC` [TriC10, Tridecanoin <Tricaprin>], the “GLP-1 CONCENTRATION (plasma)” value is 2.803 ± 0.952 pM.
